In patent publication US9925202B2, “Treatment of lymphangioleiomyomatosis” (THE BRIGHAM AND WOMEN'S HOSPITAL, INC., priority 2013, dated 2018):

Experiments:
[1] = tested on: A549 cells (Human lung adenocarcinoma); conditions: reference 18; cited from earlier work
[2] = tested on: LAM patient-derived 621-101 cells; assay: Proliferation of 621-101 cells; type: cell-based, human
Protocol: (§1) Cell culture and reagents. ELT-3 cells (Eker rat uterine leiomyoma-derived) (22,23) and LAM patient-derived 621-101 cells were cultured in IIA complete medium. HeLa, U2OS and OVARC5 cells were cultured in DMEM supplemented with 10% FBS. 17-beta-estradiol (10 nM), rapamycin (20 nM, Biomols), NS398 (50 μM), aspirin (450 μM Sigma), and 15-epi-LXA4 (100 nM) were used as indicated.

[3] = tested on: LAM patient-derived TSC2-deficient 621-101 cells; assay: COX, phospho-protein and secreted prostaglandin levels in 621-101 cells (immunoblot, enzyme immunoassay); type: cell-based, human; conditions: 24 hr; for COX-1 levels / COX-2 levels / phosphorylation of MAPK or S6: 50 μM NS398 or 450 μM aspirin, immunoblot
Protocol: as §1
(§2) Immunoblotting and antibodies. Cells were lysed in m-PER buffer (PIERCE). Antibodies were used: COX-1, COX-2, phospho-MAPK (T202/Y204), phospho-S6 (S235/236), Cleaved caspase 3, cleaved PARP (CELL SIGNALING), tuberin and c-Myc (SANTA CRUZ), smooth muscle actin (BIOGENEX), and beta-actin (SIGMA).
(§3) Quantification of prostaglandin levels. PGE2, 6-keto-PGF1α and creatinine were measured using enzyme immunoassay kits (Cayman Chemical). Levels of secreted prostaglandins were normalized to protein concentrations and expressed as pg/mg protein. Urinary levels of prostaglandins were normalized to creatinine levels and expressed as […].

TSC2-deficient cells = assay: COX-2 activation and prostaglandin production in TSC2-deficient cells with Torin 1; type: cell-based; conditions: specifically to TSC2-deficient cells
[4] = tested on: xenograft tumors of TSC2-deficient ELT3-luciferase-expressing cells; assay: Aspirin in xenograft tumor model of ELT3-luciferase-expressing cells; type: in vivo, mice
Protocol: Animal studies. All animal work was performed in accordance with protocols approved by the IACUC-BWH. Female intact CB17-SCID mice were used as described previously (8, 24, 25). Aspirin (100 mg/kg/day, in drinking water) treatment was initiated five weeks post-cell inoculation. Urine specimens were collected.
as §2, §3
Statistical analyses. Statistical analyses were performed using Student's t-test when comparing two groups for in vitro and in vivo studies. Two-Way ANOVO test was performed in xenograft tumor-aspirin studies. Mann Whitney tests were used for prostaglandin quantification in clinical data.
To determine whether inhibition of COX-1 and/or COX-2 impacts the growth of LAM patient-derived cells, 621-101 cells were treated with Sulindac (a COX-1 inhibitor), NS398 (a COX-2 inhibitor), or aspirin (an irreversible COX-1 and COX-2 inhibitor) for 24 hr. […] The inventors next assessed the possible benefit of aspirin in a xenograft tumor model of TSC2-deficient ELT3-luciferase-expressing cells. Aspirin treatment for two-three weeks decreased the intensity of bioluminescence (FIG. 3c), reduced the growth of xenograft tumors by 35% (FIG. 3d), and decreased the tumor size (FIG. 3e). Tumors also had reduced expression of COX-2 and c-Myc, and increased levels of cleaved-caspase-3 and cleaved-PARP (Data not shown).

[5] = tested on: tumors of TSC2-deficient LAM patient-derived cells; assay: Metastatic tumor model of LAM derived cells; type: in vivo, mice; conditions: aspirin treatment
Protocol: Arrows indicate individual tumors.
Bioluminescent imaging was performed weekly. Tumor area was normalized to the baseline before drug administration.
FIGS. 3f and 3g show the urinary PGE2 that was quantified from mice treated with aspirin or vehicle for 7 and 30 days. *p<0.05.

LAM patients = assay: Exhaled breath condensate and lung function in LAM patients on aspirin; type: in vivo, human
Protocol: To examine the functional effect of COX-2 in LAM lungs, 15-epi-lipoxin A4 (LXA4), a product of aspirin-acetylated COX-2, was measured in exhaled breath condensate (EBC) from three LAM subjects (data not shown). 15-epi-LXA4 was detected in EBC and the levels were increased with aspirin (data not shown).

[6] = aspirin 100 mg/kg/day in drinking water, two-three weeks
[7] = aspirin-treated mice, data not shown
[8] = LAM patients, aspirin treatment

CCCCC[C@@H](O)/C=C/C=C\C=C\C=C\[C@@H](O)[C@@H](O)CCCC(=O)O [15-epi-LXA4, 15-epi-lipoxin A4]
proliferation of A549 cells [1]: decreases | proliferation of LAM patient-derived 621-101 cells ([2]; 15-epi-LXA4 100 nM, data not shown): suppressed

CS(=O)(=O)Nc1ccc([N+](=O)[O-])cc1OC1CCCCC1 [NS398]
COX-1 levels [3]: reduced | COX-2 levels [3]: reduced | phosphorylation of MAPK or S6 [3]: without affecting

CCC(=O)N1CCN(c2ccc(-n3c(=O)ccc4cnc5ccc(-c6cnc7ccccc7c6)cc5c43)cc2C(F)(F)F)CC1 [Torin 1]
COX-2 activation and prostaglandin production (TSC2-deficient cells): suppresses

CC(=O)Oc1ccccc1C(=O)O [aspirin]
intensity of bioluminescence [4, 6]: decreased | reduction of growth of xenograft tumors [4, 6]: 35% | tumor size [4, 6]: decreased | urinary levels of PGE2 and 6-Keto-PGF1α ([4]; aspirin-treated mice bearing ELT3 xenograft tumors, data not shown): markedly reduced | apoptosis in xenograft tumors ([4]; aspirin-treated mice compared to vehicle-treatment): higher levels | expression of COX-2 and c-Myc in tumors [4, 7]: reduced | levels of cleaved-caspase-3 and cleaved-PARP in tumors [4, 7]: increased | COX-1 levels [3]: reduced | COX-2 levels [3]: reduced | phosphorylation of MAPK or S6 [3]: without affecting | PGE2 levels ([3]; aspirin 450 μM, conditioned media, ELISA): significantly decreased | proliferation of 621-101 cells ([2]; aspirin 450 μM): reduced | growth of tumors of LAM derived cells [5]: decreased | urinary prostaglandins [5]: reduction | lung function (LAM patients; [8]): improved | prostaglandin levels in exhaled breath condensate (LAM patients; [8]): reduced | 15-epi-LXA4 levels in exhaled breath condensate (EBC) (LAM patients; three LAM subjects, oral aspirin ingestion, data not shown): increased
